Test results as given in the NIST ThermoML archive (doi:10.1016/j.jct.2017.03.027).

Experiments:
[1] = molar heat capacity at constant pressure; xn = mol fraction of the nth substance listed; conditions: 100 kPa, Liquid, Large sample (1 g) DSC
[2] = xn = mol fraction of the nth substance listed; conditions: 100 kPa, Liquid, Vibrating tube method

Cc1ccc(C(C)C)cc1 [1-(1-methylethyl)-4-methylbenzene] + CCO
Conditions	mass density, 298.15 K [kg/m3]	mass density, 308.15 K [kg/m3]	mass density, 318.15 K [kg/m3]	mass density, 328.15 K [kg/m3]	molar heat capacity at constant pressure, 298.6 K [J/K/mol]	molar heat capacity at constant pressure, 308.5 K [J/K/mol]	molar heat capacity at constant pressure, 318.5 K [J/K/mol]	molar heat capacity at constant pressure, 328.4 K [J/K/mol]
[1], x1 = 0.0494	–	–	–	–	121.2	126.1	130.8	135.6
[1], x1 = 0.0995	–	–	–	–	130	134.7	140.1	145.9
[1], x1 = 0.2	–	–	–	–	146.5	152.2	157.8	163.8
[1], x1 = 0.3009	–	–	–	–	162.2	168.5	174.7	181
[1], x1 = 0.4037	–	–	–	–	177.7	183.8	190.2	197
[1], x1 = 0.5034	–	–	–	–	192.6	199	205.4	211.9
[1], x1 = 0.6023	–	–	–	–	205.5	211.8	219.4	225.1
[1], x1 = 0.7017	–	–	–	–	217.6	224.3	230.7	236.9
[1], x1 = 0.802	–	–	–	–	229.2	235.3	240.9	247
[1], x1 = 0.897	–	–	–	–	238.6	243.1	248.4	253.8
[1], x1 = 0.9509	–	–	–	–	240.2	243.9	248.9	254.1
[1], x1 = 1	–	–	–	–	240.3	244.7	249.4	254.4
[2], x1 = 0.0494	793.49	784.81	775.96	766.9	–	–	–	–
[2], x1 = 0.0995	800.72	792.02	783.15	774.08	–	–	–	–
[2], x1 = 0.2	812.35	803.65	794.79	785.71	–	–	–	–
[2], x1 = 0.3009	821.26	812.6	803.77	794.75	–	–	–	–
[2], x1 = 0.4037	828.42	819.8	811.02	802.06	–	–	–	–
[2], x1 = 0.5034	834.18	825.62	816.91	808.04	–	–	–	–
[2], x1 = 0.6023	838.73	830.22	821.58	812.79	–	–	–	–
[2], x1 = 0.7017	842.86	834.43	825.88	817.21	–	–	–	–
[2], x1 = 0.802	846.53	838.18	829.75	821.21	–	–	–	–
[2], x1 = 0.897	849.61	841.37	833.06	824.68	–	–	–	–
[2], x1 = 0.9509	851.34	843.19	834.99	826.74	–	–	–	–
[2], x1 = 1	852.93	844.89	836.81	828.69	–	–	–	–
